# According to patent US20060009432A1, “Use of neurosteroids to treat neuropathic pain” (priority 2004, published 2006):
# Key:
# [1] = test system: L5/L6 spinal nerve ligation (SNL) rats; test: Tactile allodynia (von Frey) in spinal nerve ligation model; type: in vivo, rat
# Procedure: (§1) (A) L5/L6 spinal nerve ligation (SNL) was performed as described by Kim and Chung (Pain, 50,355-363(1992)). Animals (mice or rats) were anesthetized with halothane. An incision was made lateral to the lumbar spine. The right L5 and L6 spinal nerves were isolated and tightly ligated distal to the dorsal root ganglion. The incision was closed, and animals were allowed to recover for 10 days. Sham-operated animals were prepared in an identical fashion except that the spinal nerves were not ligated.
# The protocol was repeated until three changes in behavior were determined. The maximal cut-off size values used were 15 g for rats and 3.5 g for mice. The 50% paw withdrawal threshold was determined as 10Xf+kδ/10,000, where Xf=the value of the last von Frey filament used, k=Dixon value for the positive/negative pattern, and δ=the logarithmic difference between stimuli.
# Tactile allodynia response was measured 15, 30, 45, 60, 90 and 120 minutes after i.p. administration of ganaxolone (at 1 mg/kg, 3 mg/kg, 6 mg/kg or 10 mg/kg). Table 2 provides the resulting measurement of tactile allodynia response in groups of five rats per dosage level.
# [2] = test system: rats receiving sham surgery; test: Thermal withdrawal in rats receiving sham surgery; type: in vivo, rat
# Procedure: as §1
# (B) The method of Hargreaves et al. (Pain, 32, 77-88 (1988)) was used to measure the thermal withdrawal latency in SNL rats. Animals were acclimated within Plexiglas enclosures on a clear glass plate maintained at 30° C. A radiant heat source (high-intensity projector lamp) was focused onto the plantar surface of the paw. When the paw was withdrawn, a motion detector halted the stimulus and a timer. A maximal cut-off of 40 sec for rats and 30 sec for mice was used to prevent tissue damage. Differences in responses between groups were tested by using the standard ANOVA statistical test followed by post hoc testing with Student's t test with Bonferroni's correction. Significance was defined as P<0.05.
# The thermal withdrawal response was measured using the same protocol in rats receiving sham surgery. Table 4 provides the resulting measurement of thermal withdrawal in groups of five rats per dose level.
# [3] = test system: chronic constriction injury (CCI) of the sciatic nerve, rats; test: Cold allodynia (acetone application) in chronic constriction injury model; type: in vivo, rat; conditions: for Average time to withdrawal (s.e.m.): CCI rats
# Procedure: Unilateral sciatic nerve injury was produced under deep anesthesia with i.p injection of sodium pentobarbital (Mebumal, 60 mg/kg), as described by Bennett and Xie (Pain, 33, 87-107(1988)). The common sciatic nerve was exposed and freed for about 10 mm at mid-thigh level. Four ligatures (Ethicon, 4.0 plain gut) were tied loosely around the nerve with about 1-mm spacing creating a chronic constriction injury (CCl), and the incision was closed.
# Brisk foot withdrawal in response to acetone application was measured based on the method described by Choi et al. The acetone bubble was gently brought in touch with the plantar surface around the center, and the acetone quickly spread over the central part of the plantar surface of the foot. Applications were made five times (once every 5 min) to each paw. The score for each application was recorded as follows: foot withdrawal was scored as positive (1) and lack of withdrawal as negative (O). The total score (0 to 5) was taken as index for cold sensitivity of the foot […]. This approximates pain from a non-noxious stimulus, i.e. allodynia.
# Cold allodynia response was measured 15, 30, 45, 60, 90 and 120 minutes after i.p. administration of ganaxolone (at 1 mg/kg, 3 mg/kg or 10 mg/kg) as well as prior to administration of the neurosteroid and prior to infliction of the neural injury. Table 1 provides the resulting measurement of cold allodynia response in groups of six rats per dosage level. The abbreviation “s.e.m.” means standard error mean.
# [4] = test system: migraine; conditions: phase 2 clinical trial for migraine; cited from earlier work
smiles,measurement,setting,value
"CC(=O)[C@H]1CC[C@H]2[C@@H]3CC[C@H]4C[C@](C)(O)CC[C@]4(C)[C@H]3CC[C@]12C [ganaxolone, 3α-hydroxy-3β-methyl-5α-pregnan-20-one]",% Activity ± s.e.m. (tactile allodynia),"[1]; 10 mg/kg i.p., 30 min, SNL rats",79.27 ± 18.71%
same,% Activity ± s.e.m. (tactile allodynia),"[1]; 10 mg/kg i.p., 45 min, SNL rats",70.60 ± 18.42%
same,% Activity ± s.e.m. (tactile allodynia),"[1]; 10 mg/kg i.p., 60 min, SNL rats",64.61 ± 18.63%
same,% Activity ± s.e.m. (tactile allodynia),"[1]; 10 mg/kg i.p., 90 min, SNL rats",24.81 ± 9.53%
same,% Activity ± s.e.m. (tactile allodynia),"[1]; 10 mg/kg i.p., 120 min, SNL rats",4.38 ± 1.81%
same,Sedation,"[1]; 10 mg/kg i.p., SNL rats, tactile allodynia test",sedated four of the five rats for about one hour
same,Effect on % Activity,"[1]; summary, SNL animals",increases the % Activity
same,% Activity (thermal withdrawal),"[2]; 3 mg/kg, 15 min",11.87 ± 7.34%
same,% Activity (thermal withdrawal),"[2]; 3 mg/kg, 30 min",3.25 ± 2.71%
same,% Activity (thermal withdrawal),"[2]; 3 mg/kg, 45 min",3.62 ± 3.62%
same,% Activity (thermal withdrawal),"[2]; 3 mg/kg, 60 min",1.98 ± 1.98%
same,% Activity (thermal withdrawal),"[2]; 3 mg/kg, 90 min",2.22 ± 1.61%
same,% Activity (thermal withdrawal),"[2]; 3 mg/kg, 120 min",1.39 ± 1.39%
same,% Activity (thermal withdrawal),"[2]; 6 mg/kg, 15 min",0.00 ± 0.00%
same,% Activity (thermal withdrawal),"[2]; 6 mg/kg, 30 min",0.00 ± 0.00%
same,% Activity (thermal withdrawal),"[2]; 6 mg/kg, 45 min",3.98 ± 3.98%
same,% Activity (thermal withdrawal),"[2]; 6 mg/kg, 60 min",2.95 ± 2.95%
same,% Activity (thermal withdrawal),"[2]; 6 mg/kg, 90 min",1.73 ± 1.73%
same,% Activity (thermal withdrawal),"[2]; 6 mg/kg, 120 min",0.41 ± 0.41%
same,% Activity (thermal withdrawal),"[2]; 10 mg/kg, 15 min",24.54 ± 19.33%
same,% Activity (thermal withdrawal),"[2]; 10 mg/kg, 30 min",22.60 ± 11.64%
same,% Activity (thermal withdrawal),"[2]; 10 mg/kg, 45 min",8.03 ± 4.26%
same,% Activity (thermal withdrawal),"[2]; 10 mg/kg, 60 min",0.65 ± 0.65%
same,% Activity (thermal withdrawal),"[2]; 10 mg/kg, 90 min",0.28 ± 0.28%
same,% Activity (thermal withdrawal),"[2]; 10 mg/kg, 120 min",0.02 ± 0.02%
same,Average time to withdrawal (s.e.m.),"[3]; 1 mg/kg i.p., 15 min after administration",7.40 (1.02)
same,Average time to withdrawal (s.e.m.),"[3]; 1 mg/kg i.p., 30 min after administration",6.12 (1.72)
same,Average time to withdrawal (s.e.m.),"[3]; 1 mg/kg i.p., 45 min after administration",5.07 (1.14)
same,Average time to withdrawal (s.e.m.),"[3]; 1 mg/kg i.p., 60 min after administration",2.59 (0.47)
same,Average time to withdrawal (s.e.m.),"[3]; 1 mg/kg i.p., 90 min after administration",3.66 (0.47)
same,Average time to withdrawal (s.e.m.),"[3]; 1 mg/kg i.p., 120 min after administration",3.16 (0.26)
same,Average time to withdrawal (s.e.m.),"[3]; 3 mg/kg i.p., 15 min after administration",6.77
same,Average time to withdrawal (s.e.m.),"[3]; 3 mg/kg i.p., 30 min after administration",13.03
same,Average time to withdrawal (s.e.m.),"[3]; 3 mg/kg i.p., 45 min after administration",11.12
same,Average time to withdrawal (s.e.m.),"[3]; 3 mg/kg i.p., 60 min after administration",11.69
same,Average time to withdrawal (s.e.m.),"[3]; 3 mg/kg i.p., 90 min after administration",10.26
same,Average time to withdrawal (s.e.m.),"[3]; 3 mg/kg i.p., 120 min after administration",10.30
same,Average time to withdrawal (s.e.m.),"[3]; 10 mg/kg i.p., 15 min after administration",13.86
same,Average time to withdrawal (s.e.m.),"[3]; 10 mg/kg i.p., 30 min after administration",15.35
same,Average time to withdrawal (s.e.m.),"[3]; 10 mg/kg i.p., 45 min after administration",13.34
same,Average time to withdrawal (s.e.m.),"[3]; 10 mg/kg i.p., 60 min after administration",10.38
same,Average time to withdrawal (s.e.m.),"[3]; 10 mg/kg i.p., 90 min after administration",8.59
same,Average time to withdrawal (s.e.m.),"[3]; 10 mg/kg i.p., 120 min after administration",8.87
same,Effect on average time to withdrawal,"[3]; summary of Table 1, CCI rats",increases the average time to withdrawal
same,Benefit on time to pain relief,[4],failed to show benefit
